Key:
Assay in all cases: relative viability (nuclei count vs DMSO), 5 days (fraction); higher = more cells survive
Sunitinib + Navitoclax = compound: CCN(CC)CCNC(=O)c1c(C)[nH]c(/C=C2\C(=O)Nc3ccc(F)cc32)c1C [Sunitinib] + CC1(C)CCC(c2ccc(Cl)cc2)=C(CN2CCN(c3ccc(C(=O)NS(=O)(=O)c4ccc(N[C@H](CCN5CCOCC5)CSc5ccccc5)c(S(=O)(=O)C(F)(F)F)c4)cc3)CC2)C1 [Navitoclax] (partner 0.5 µM)
Procedure, shortened: (§1)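 Dosing by pin tool came one day after lung cancer cell lines were seeded in 1536-well plates, using either one drug or a fixed anchor-drug dose plus five library-drug doses (not always all listed) in √10 steps. After 5 days, nuclei were counted on 4× images. Relative viability is treated-well nuclei count divided by vehicle-well nuclei count, and values are medians of duplicate plates.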

Sunitinib + Luminespib = compound: CCN(CC)CCNC(=O)c1c(C)[nH]c(/C=C2\C(=O)Nc3ccc(F)cc32)c1C [Sunitinib] + CCNC(=O)c1noc(-c2cc(C(C)C)c(O)cc2O)c1-c1ccc(CN2CCOCC2)cc1 [Luminespib] (partner 0.01 µM)
Procedure, shortened: as §1

Sunitinib + Foretinib = compound: CCN(CC)CCNC(=O)c1c(C)[nH]c(/C=C2\C(=O)Nc3ccc(F)cc32)c1C [Sunitinib] + COc1cc2c(Oc3ccc(NC(=O)C4(C(=O)Nc5ccc(F)cc5)CC4)cc3F)ccnc2cc1OCCCN1CCOCC1 [Foretinib] (partner 0.25 µM)
Procedure, shortened: as §1

Sunitinib + Linsitinib = compound: CCN(CC)CCNC(=O)c1c(C)[nH]c(/C=C2\C(=O)Nc3ccc(F)cc32)c1C [Sunitinib] + C[C@]1(O)C[C@@H](c2nc(-c3ccc4ccc(-c5ccccc5)nc4c3)c3c(N)nccn32)C1 [Linsitinib] (partner 1 µM)
Procedure, shortened: as §1

Cell Line	relative viability (Sunitinib + Navitoclax; first compound 0.02 µM)	relative viability (Sunitinib + Navitoclax; first compound 0.06325 µM)	relative viability (Sunitinib + Navitoclax; first compound 0.2 µM)	relative viability (Sunitinib + Navitoclax; first compound 0.6325 µM)	relative viability (Sunitinib + Navitoclax; first compound 2 µM)	relative viability (Sunitinib + Luminespib; first compound 0.02 µM)	relative viability (Sunitinib + Luminespib; first compound 0.06325 µM)	relative viability (Sunitinib + Luminespib; first compound 0.2 µM)	relative viability (Sunitinib + Luminespib; first compound 0.6325 µM)	relative viability (Sunitinib + Luminespib; first compound 2 µM)	relative viability (Sunitinib + Foretinib; first compound 0.02 µM)	relative viability (Sunitinib + Foretinib; first compound 0.06325 µM)	relative viability (Sunitinib + Foretinib; first compound 0.2 µM)	relative viability (Sunitinib + Foretinib; first compound 0.6325 µM)	relative viability (Sunitinib + Foretinib; first compound 2 µM)	relative viability (Sunitinib + Linsitinib; first compound 0.02 µM)	relative viability (Sunitinib + Linsitinib; first compound 0.06325 µM)	relative viability (Sunitinib + Linsitinib; first compound 0.2 µM)	relative viability (Sunitinib + Linsitinib; first compound 0.6325 µM)	relative viability (Sunitinib + Linsitinib; first compound 2 µM)
LC-2-ad	0.381	0.495	0.714	0.406	0.355	1.09	1.06	1.18	1.04	0.913	0.868	0.949	0.952	0.99	0.861	0.839	0.918	0.89	0.844	0.677
LCLC-97TM1	0.465	0.402		0.401	0.323	0.597	0.743		0.794	0.772	0.926		1.13	0.991	0.926	0.176	0.197		0.213	0.191
LK-2	0.737	0.963	1.12	0.862	0.836	0.193	0.213	0.208	0.231	0.2	1.1	1.56	1.72	1.42	1.24	0.504	0.516	0.658	0.712	0.637
LOU-NH91	0.727	0.665	0.746	0.734	0.564	0.332	0.403	0.338	0.357	0.349	0.939	0.974	1.04	0.998	0.878		0.983	0.959	0.95	0.87
LU99A	0.807	0.765		0.882	0.788	0.281	0.254	0.281	0.221	0.299	0.731	0.894	0.931	1.01	0.91	0.455	0.574	0.602	0.652	0.474
LXF-289	0.93	0.94	1	0.945	0.915	0.635	0.734	0.89		0.651	0.979	1.02	1.02	1.03	1.1	0.947	0.978	1.02	0.988	
NCI-H23	0.806	0.879	0.899	1.07	0.66	0.214	0.229	0.204	0.214	0.21	0.875	1.25	1.03	1.1	0.749	0.552	0.6	0.605	0.674	0.554
NCI-H322M	1.25	1.18	1.3	1.25	1.34		0.859	0.966	0.948	0.616	0.906		1.14	1.13	0.869	0.871	0.969	0.985	0.942	0.754
NCI-H441		0.684	0.946	0.808	0.368	0.32	0.275	0.332	0.396	0.339	0.771	0.953		1.01	1.04	0.406	0.491	0.542	0.555	0.612
NCI-H460	0.862	1.19	1.37	1.41	1.08	0.0352	0.0388	0.0351	0.0528	0.0318	0.879	1.08	1.03	1.05	1.06	0.662		0.95	0.927	0.699
NCI-H520		1.11	1.21	1.02	0.897	0.22	0.231	0.214	0.22	0.228	0.593	0.843	0.798	1	0.605	0.86	1.15	0.911	0.975	1.01
NCI-H596	0.987	0.802	1.14	0.945	0.956	0.884	1.05	1.09	1.03	0.941	0.688	0.949	0.779	0.849	0.649	1	1.02	1.21	1.14	0.911
NCI-H647	0.988	1.18		1.24	1.22	0.232	0.143	0.131	0.137	0.154		1.03	1.34	1.13	1.21		1.23	1.28	0.991	0.969
NCI-H727	0.433	0.45	0.454	0.523	0.396	0.429	0.498	0.456	0.457	0.313	0.926	0.837	1.12	0.979	0.788	0.146	0.363	0.239	0.311	0.292
NCI-H838	1.1	1.23	1.28	1.13	0.91	0.351	0.328	0.301	0.261	0.234	1.04	1	1.14	1.08	0.826	0.916	0.987	1.06	1.07	0.85
NCI-H1355	0.841	0.961	0.921	0.923	0.983	0.723	0.735	0.718	0.712	0.719	0.957	0.802			0.68	0.759	0.859	0.874	0.829	0.813
NCI-H1395	1.03	1.21	1.34	1.27	1.17	0.72	0.375	0.723	0.706	0.602	0.955	0.996	1.05	1	1.14	0.975	1.2	1.37	1.19	
NCI-H1437	1.06	1.2	1.19	1.13	1.16	1.03	1.12	1.23	1.12	1.17	1.24	1.25	1.28	1.22	1.32	0.975	1	1.2		1.02
NCI-H1651	0.922	1.09	1.19	1.08	1.15	0.758	0.766	1.06	0.942	1.14	0.762	0.843	0.877	0.826	0.806	0.882	1.07	1.09	0.998	0.96
NCI-H1666	1.03	0.921	1.22	0.836	0.96	0.983		1.07	1.07	1.12	0.912	1	1.05	1.04	1.01	0.701	0.815	0.971	0.827	
NCI-H1734	0.785	0.815	0.954	0.846	0.906	0.166	0.186	0.188	0.149	0.212	0.815	0.896	0.966		0.752	0.844	0.95	0.936	0.944	0.756
NCI-H1755				1.04	0.993	0.435	0.497	0.499	0.441	0.334	0.891	0.897	0.959	0.981	0.936	0.996	0.98		0.979	0.941
NCI-H1793		0.528	0.438	0.458	0.472	0.19	0.166	0.165	0.191	0.166	0.649	0.675	0.753	0.723	0.593		0.856	1.08	0.838	0.93
NCI-H1915	0.764	0.765	0.833	0.815	0.805	0.5	0.846	0.822	0.869	0.83	1.07	1.11	1.14	1.13	1.15	1.08	1.15	1.14	1.09	1.11
NCI-H1944	1.03	1.04	1.1		1	0.738	0.722	0.752	0.769	0.638	0.738	1	0.962	0.944	0.863	1.12	1.18	1.28	1.25	1.16
NCI-H1975	1.07	1.15	1.11	1.12	1.12	0.278	0.185	0.185	0.173	0.172	0.899	1.03	1.07	1.01	1.01		0.969	1.01	0.986	0.868
NCI-H1993	0.923	1.01		0.872	0.905	0.741	0.941	0.866	0.654	0.79	0.746	0.691	0.789	0.685	0.73	0.711	0.744		0.8	0.664
NCI-H2009	1.18	1.19	1.26	1.16	1.26	1.02	1.05	1.18	1.04	1.04	1.19	1.25	1.31	1.27	1.3	1.2	1.18	1.2	1.31	1.27

From the supplement of paper PMC10307832
